Read-outs that look alike come from different tables or passages of the source.
Experiments:
[1] = tested on: CTG-0165 human lung NSCLC xenograft; assay: CTG-0165 xenograft model, Compound 1 and cisplatin; type: in vivo, Mus musculus/nu/nu mice; conditions: for Tumor Volume Day 21: in mm³ (unit assumed)
Experimental: CTG-0165 tumor fragments (approximately 2×2×3 mm^3) were implanted into the subcutaneous space in the right dorsal flank of female Mus musculus/nu/nu mice (age 6-9 weeks, Harlan Laboratories, Madison, Wis., USA) using a 13-gauge trocar. When the mean tumor volume reached approximately 260 mm^3, the animals were randomized into 8 treatment groups (n=5/group).
Cisplatin (Teva Pharmaceuticals) is formulated in 0.9% saline and administered by IV injection once weekly (QW) at 7.5 mg/kg. The once weekly schedule is also described as every 7 days (Q7D).
(§1) Compound 1 [((1R,2R,3S,4R)-2,3-dihydroxy-4-(2-(3-(trifluoromethylthio)-phenyl)pyrazolo[1,5-a]pyrimidin-7-ylamino)cyclopentyl)methyl sulfamate] is formulated in 10-20% HPbCD in sterile water and administered intravenously (IV) or subcutaneously (SC) on a BIW (twice/week schedule; Monday and Thursday or Tuesday and Friday) for either 2-4 weeks.
(§2) Tumors were measured twice weekly using vernier calipers. Tumor volumes were calculated using the standard formula V=W^2×L/2,). When mean tumor volumes reached approximately 200 mm^3 for PHTX-24C, 220 mm^3 for PHTX-Lu132, 150 mm^3 for CTG-0256, 260 mm^3 for CTG-0486, 185 mm^3 for PHTX-17C, 260 mm^3 for CTG-0165, 150 mm^3 for PHTX-14B in the study of Compound 1 and paclitaxel, 180 mm^3 for PHTX-14B in the study of Compound 1 and docetaxel, 200 mm^3 for SKOV-3, 220 mm^3 for PHTX-02B in the study of Compound 1 and docetaxel, 250 mm^3 for PHTX-02B in the study of Compound 1 and paclitaxel, 195 mm^3 for CTG-0159, 180 mm^3 for CTG-0012 or 150 mm^3 for Calu-6, mice were randomized into groups of n=5-7/arm as described in the tables below, and injected with vehicle, Compound 1 or agents (docetaxel, paclitaxel, oxaliplatin, cisplatin or carboplatin), or the combination of Compound 1 plus one of the agents, at various doses and schedules as described in tables below. Tumor size and body weight were measured approximately twice a week for the duration of the study. Mice are euthanized when their tumor volume reached 10% of their body weight, or when the average tumor volume of a treatment or control group reached approximately 2000 mm^3. Tumor growth continued to be monitored after the dosing period in some studies. Average tumor volume is reported as a function of time for selected arms of selected studies in the Figures.
(§3) Measurements from day 0 to day 14, day 19, day 21, or day 28 are analyzed as specified in Tables below. All tumor volumes have a value of 1 added to them before log10 transformation. For each animal, the log tumor volume at day 0 is subtracted from the log tumor volume on the subsequent days. This difference vs. time is used to calculate an area under the curve (AUC) for each animal using the trapezoid rule. […] The synergy score for the combination of agents A and B is defined as
(§4) 100*(mean(AUCAB)−mean(AUCA)−mean(AUCB)+mean(AUCctl))/mean(AUCctl):
(§5) where AUCAB, AUCA, AUCB, and AUCctl are the AUC values for animals in the combination group, the A group, the B group, and the control group, respectively. The standard error of the synergy score is computed based on the variation in the AUC values among the animals. […] If the P-value is above 0.05, then the combination is considered to be additive. If the P-value is below 0.05, and the synergy score is less than zero, then the combination is considered to be synergistic.

[2] = tested on: PHTX-14B breast xenograft; assay: PHTX-14B xenograft model, Compound 1 and paclitaxel; type: in vivo, Balb/c Nude Mice; conditions: for Tumor Volume Day 28: in mm³ (unit assumed)
Experimental: Paclitaxel (Bristol-Myers Squibb Company) is formulated in 0.9% saline and administered by intravenous injection (IV) on every 4 days (Q4D) or once weekly (QW) at 10 and 20 mg/kg. […] Tumors were measured twice weekly using vernier calipers.

[3] = tested on: PHTX-24C colon xenograft; assay: PHTX-24C xenograft model, Compound 1 and oxaliplatin; type: in vivo, CB-17 SCID mice
Experimental: Oxaliplatin (Jiang Su Geng Rui Pharmaceuticals, Inc.) is formulated in 0.9% saline and administered by IP injection once weekly (QW) at 7.5 or 12.5 mg/kg. The once weekly schedule is also described as every 7 days (Q7D).
as §1, §2, §3, §4
where AUCAB, AUCA, AUCB, and AUCctl are the AUC values for animals in the combination group, the A group, the B group, and the control group, respectively. […]

[4] = tested on: CTG-0159 human lung NSCLC xenograft; assay: CTG-0159 xenograft model, Compound 1 and docetaxel; type: in vivo, Mus musculus/nu/nu mice; conditions: for Tumor Volume Day 21: in mm³ (unit assumed)
Experimental: (§6) Docetaxel (Henry Schein, Inc., Pittsburgh Pa.) is formulated in 0.9% saline and administered by intravenous injection (IV) once weekly (QW) at 5 mg/kg or 10 mg/kg. […] Tumors were measured twice weekly using vernier calipers.

[5] = tested on: PHTX-132Lu non-small cell lung xenograft; conditions: for Tumor Volume Day 21: in mm³ (unit assumed)
Excerpt: The PHTX-132Lu non-small cell lung xenograft model was established from a patient-derived tumor collected during surgery from a person with lung cancer (Poorly Differentiated Adenocarcinoma). PHTX-132Lu tumor fragments (approximately 2×2×3 mm^3) are implanted into the subcutaneous space in the right dorsal flank of female CB-17 SCID mice (age 10 weeks, Charles River Laboratory, Wilmington, Mass.) using a 13-gauge trocar. When the mean tumor volume reached approximately 220 mm^3, the animals were randomized into 12 treatment groups (n=5/group).
Carboplatin (Teva Pharmaceuticals) is formulated in 0.9% saline and administered by IP injection once weekly (QW) at 25, 50, 60, and 75 mg/kg. The once weekly schedule is also described as every 7 days (Q7D).
as §1, §2, §3, §4, §5

[6] = tested on: PHTX-02B breast xenograft; assay: PHTX-02B xenograft model, Compound 1 and docetaxel; type: in vivo, SCID-NOD mice; conditions: for Tumor Volume Day 21: in mm³ (unit assumed)
Experimental: as §6

NS(=O)(=O)OC[C@H]1C[C@@H](Nc2ccnc3cc(-c4cccc(SC(F)(F)F)c4)nn23)[C@H](O)[C@@H]1O [Compound 1, ((1R,2R,3S,4R)-2,3-dihydroxy-4-(2-(3-(trifluoromethylthio)phenyl)pyrazolo[1,5-a]pyrimidin-7-ylamino)cyclopentyl)methyl sulfamate]
Tumor Volume Day 21 ([1]; 6.25 mg/kg Compound 1 BIWx3 IV): 988.8 | Tumor Volume Day 21 ([1]; 15 mg/kg Compound 1 BIWx3 IV): 1624.9 | Tumor Volume Day 21 ([1]; 20 mg/kg Compound 1 BIWx3 IV): 1476.3 | anti-tumor activity compared to vehicle control ([1]; single agent Compound 1 IV at 20, 15, 6.25 mg/kg BIW): modest to weak anti-tumor activity | Tumor Volume Day 28 ([2]; 10 mg/kg Compound 1 BIWx4 SC): 690.0 | Tumor Volume Day 28 ([2]; 20 mg/kg Compound 1 BIWx4 SC): 480.6 | Tumor Volume Day 28 ([2]; 30 mg/kg Compound 1 BIWx4 SC): 165.1 | anti-tumor activity ([2]; single agent Compound 1 SC at 30 mg/kg BIW for 4 weeks): strong anti-tumor activity | anti-tumor activity compared to vehicle control ([2]; single agent Compound 1 SC at 10, and 20 mg/kg BIW for 4 weeks): modest anti-tumor activity | Tumor Volume Day 21 ([3]; 10 mg/kg Compound 1 BIWx3 IV, in mm³ (unit assumed)): 609.3 | anti-tumor activity compared to vehicle control ([3]; single agent Compound 1 IV at 10 mk/kg BIW): modest anti-tumor activity | Tumor Volume Day 21 ([4]; 6.25 mg/kg Compound 1 BIWx3 IV): 1618.9 | Tumor Volume Day 21 ([4]; 15 mg/kg Compound 1 BIWx3 IV): 2373.2 | Tumor Volume Day 21 ([4]; 20 mg/kg Compound 1 BIWx3 IV): 1376.2 | tumor growth ([4]; Compound 1 alone at 20, 15, and 6.25 mg/kg IV BIW): did not inhibit tumor growth | Tumor Volume Day 21 ([5]; 5 mg/kg Compound 1 BIWx3 IV): 882.7 | Tumor Volume Day 21 ([5]; 10 mg/kg Compound 1 BIWx3 IV): 653.5 | Tumor Volume Day 21 ([5]; 15 mg/kg Compound 1 BIWx3 IV): 483.7 | anti-tumor activity compared to vehicle control ([5]; single agent Compound 1 IV at 5, 10 and 15 mg/kg BIW): modest anti-tumor activity | Tumor Volume Day 21 ([6]; 7.5 mg/kg Compound 1 BIWx3 SC): 596.5 | Tumor Volume Day 21 ([6]; 15 mg/kg Compound 1 BIWx3 SC): 324.8 | Tumor Volume Day 21 ([6]; 20 mg/kg Compound 1 BIWx3 IV): 178.8 | Tumor Volume Day 21 ([6]; 20 mg/kg Compound 1 BIWx3 SC): 185 | tumor growth compared to the vehicle control group ([6]; single agent Compound 1 SC at 7.5, 15 and 20 mg/kg BIW, IV also 20 mg/kg BIW): inhibited tumor growth

— patent publication US20180133221A1, “ADMINISTRATION OF UBIQUITIN-ACTIVATING ENZYME INHIBITOR AND CHEMOTHERAPEUTIC AGENTS” (Millennium Pharmaceuticals, Inc., priority 2014, published 2018)
